Measurements as given in patent US10870618B2, “Histone deacetylase inhibitors and uses thereof” (MUSC FOUNDATION FOR RESEARCH DEVELOPMENT, priority 2016, dated 2020).
Values joined by “and” are separate entries in the source; they are usually repeats but may differ in a detail not shown here. Identical values can stand only once. “Also recorded” adds a separate entry of the source.

Columns and labels:
MV4-11 cells [1] = assay: Western blot analysis of MV4-11 cells; assay type: cell-based
Description: MV4-11 cells were cultured as described above. Cells were plated at 500 k cells/mL×3 mLs in clear, flat bottom 6 well plates. Cells were pre-incubated for 24 hours before addition of inhibitor at various concentrations. […] Cell pellets were lysed with RIPA buffer. RIPA buffer is comprised of 50 mM Tris Base, 150 mM NaCl, 5 mM EDTA, 0.1% (v/v) SDS, 0.5% (v/v) Sodium Deoxycholate, and 1% (v/v) Triton-x-100. After lysing, the suspension is ultra-sonicated and centrifuged at 15000 RPM for 15 minute at 4° C. 80 μL of supernatant was mixed with 40 μL of 15:85 (v/v) 3-mercaptoethanol:LDS solution. The mixture was heated at 90° C. for 15 minutes and stored for loading at −20° C. Prior to loading, the solution was flash thawed at 90° C. Lysates were run on Invitrogen NuPAGE 4-12% Bis-Tris 15 well gels at 170V for approximately 60 minutes in MES buffer. Gels were transferred to […] and ran at 30V for 180 minutes. Primary antibodies, purchased from Santa Cruz Biotechnology, were added in 5% (w/v) milk or 5% (w/v) Bovine Serum Albumin fraction V. The antibody was incubated with cellulose overnight at 4° C. before addition of secondary antibody in 5% (w/v) milk or 5% (w/v) Bovine Serum Albumin. Images were read using a GE ImageQuant LAS 4000. Global lighting adjustments of resulting images were made using Adobe Photoshop CC. Quantification was performed using Image Studio Lite 4.0.

[2] = Stability in artificial gastric and intestinal juice and human serum; assay type: in vitro ADME; details: over 8 hours
class I HDACs = assay: Class I HDAC inhibition (FIG. 7a); assay type: biochemical
Description: All Treatments are at 100 nM inhibitor concentration.

AML cell lines = assay: AML / leukemia cell toxicity; assay type: cell-based
Description: MV4-11 cells were purchased from ATCC. The cells were grown according to ATCC protocol in Iscove's Modified Deulbecco's Medium with 10% Fetal Bovine Serum. Cells were grown in 37° C. environments with 5% CO2. Cells were plated at 20 k cells/well in 96-well clear U-bottom plates and pre-incubated for 24 hours. Addition of serially diluted inhibitor (in medium) was performed followed by 48 hours of additional incubation. Addition of CellTiter-Blue occurred to a final concentration of 0.125 mg/mL. The mixture was allowed to incubate until sufficient color changed occurred. Cell viability was measured as a function of resorfuin intensity using a Tecan M200 Pro spectrophotometer, 560 nm (ex.)/590 nm (em.). […] EC50's were determined using GraphPad Prism's built in “log(inhibitor) vs. normalized response—Variable slope” function.
Hek293 cells were purchased from ATCC. Cells were grown as described above. Cells were plated at 20 k cells/well in 96-well clear U-bottom plates and pre-incubated for 24 hours. […] Cell viability was measured as a function of resorufin intensity using a Tecan M200 Pro spectrophotometer, 560 nm (ex.)/590 nm (em.).
Human PBMCs were graciously donated from Dr. Nathan Dolloff s laboratory. […] Cell viability was measured as a function of resorufin intensity using a Tecan M200 Pro spectrophotometer, 560 nm (ex.)/590 nm (em.).

[3] = In vivo PK, plasma concentration via LC-MS/MS; set-up: species or system mice
Description: The PK parameters were analyzed. The area under the plasma concentration versus time curve (AUC) is calculated using the linear trapezoidal method. The PK data were fitted to obtain PK parameters using the non-compartmental method.
LP-411 in vivo PK. a. Semi-log PK profiles for […] at 20 mg/kg (n=3) determined through a 24 hr period. b.

[4] = tested on: Raw246.7 macrophage cells; assay: NO production in activated macrophages; assay type: cell-based; details: 100 nM, LPS and LPS+ATP
From the text: Hypo-acetylation of histone H3 and H4 were also reversed with HDAC inhibitor treatments (yellow dash box). d.

[5] = ESI-LCMS glucuronidation assay; assay type: in vitro ADME, human; details: 2,2,2-trifluoroacetate
Description: Mixed gender pooled Human Liver Microsomes (HLMs) were purchased from Xenotech, Lot#H0160. A buffer solution containing 100 mM Tris HCl buffered to a pH of 7.5 at 37° C. was used to dilute HLMs to a concentration of 250 μg/mL. To this solution was added 1 μg/mL (final) of alamethicin and 5 mM MgCl2 (final). This solution was rocked gently at 4° C. for 15 minutes to allow pore formation. 180 μL of this solution was added to 10 μL of 5 mM inhibitor+10 μL of 50 mM UDPGA in H2O or just 10 μL H2O. This solution was gently rocked at 37° C. for 12 hours before being quenched with a 47:50:3 (v/v/v) solution of water, acetonitrile and formic acid. After a 15 minute centrifugation at 15000G in 37° C. conditions, 20 μL of supernatant was directly injected into Thermo LTQ Fleet LCMS.
An Accucore RP-MS HPLC Column, 2.6 […], 30×4.6 mm was used throughout these assays. Water and methanol with 0.1% (v/v) formic acid were used as mobile phase. A gradient of 10% methanol 90% water was run isocratically for 2 minutes at […]. The gradient then changed to 100% methanol over 10 minutes before returning to 10% methanol 90% water over the next three minutes. Capillary temperature was 350° C., with a spray voltage of 5 kV.

[6] = tested on: melanoma and renal cancer; assay: Cell line efficacy, melanoma and renal cancer growth; assay type: cell-based; details: melanoma and renal cancer cell lines
From the text: Percent growth below zero indicates the treatment has selective lethality to the cancer cells.

MV4-11 cells [7] = assay: Pulse treatment of MV4-11 cells, cell death; assay type: cell-based; details: 2 hr treatment (200 nM), removal of inhibitor, 24 hr incubation

CCCNNC(=O)/C=C/c1ccc(CNCCc2c(C)[nH]c3ccccc23)cc1 [LP-97, (E)-2-(2-methyl-1H-indol-3-yl)-N-(4-(3-oxo-3-(2-propylhydrazinyl)prop-1-en-1-yl)benzyl)ethan-1-aminium 2,2,2-trifluoroacetate]
p53 level after pulse treatment (MV4-11 cells [1]; 2 hr treatment (200 nM), removal of inhibitor, 24 hr incubation): significant reduction | effect on oncogenic proteins FLT3 and STAT5 (MV4-11 cells [1]; AML FLT3-ITD mutant cell line MV4-11): degradation | degradation in artificial gastric and intestinal juice and human serum [2]: no appreciable degradation | HDAC inhibitor potency, class I HDACs (class I HDACs): low-nanoM to picoM | toxicity against wt-p53 versus p53-null and mutants (AML cell lines; n=3): selective toxicity | effective concentration against multiple AML cell lines (AML cell lines; wild-type p53 leukemia cell lines): < 100 nM | Cmax relative to panobinostat ([3]; 20 mg/Kg I.P.): about 5 times | t1/2 ([3]; in vivo, 20 mg/kg, plasma): 6.07 h | half-life ([3]; mouse, intraperitoneal, in vivo, 20 mg/kg, plasma): 6.07 h | Cmax ([3]; mouse, plasma, ip, 20 mg/kg I.P.): 559 ng/mL and 1.5 µM | NO production, acute treatment [4]: only inhibited LPS induced NO production but not ATP driven ones | glucuronidation by human liver microsomes [5]: resistance to glucuronidation; also recorded: resistant to glucuronidation | growth inhibition concentration [6]: below 100 nM | total growth inhibition concentration [6]: 1 µM | cell death after pulse treatment (MV4-11 cells [7]): significant AML cell death
